Laboratory results as given in ChEMBL document CHEMBL1201862, “PubChem BioAssay data set” (2004).
Calls of active or inactive are those of the source.

Tests used:
[1] = molecular target: T1, Procathepsin L (Homo sapiens, UniProt P07711)
[2] = molecular target: T2, Aspartyl aminopeptidase (Plasmodium falciparum 3D7, UniProt Q8I2J3)
T2 sequence (Q8I2J3 whole entry): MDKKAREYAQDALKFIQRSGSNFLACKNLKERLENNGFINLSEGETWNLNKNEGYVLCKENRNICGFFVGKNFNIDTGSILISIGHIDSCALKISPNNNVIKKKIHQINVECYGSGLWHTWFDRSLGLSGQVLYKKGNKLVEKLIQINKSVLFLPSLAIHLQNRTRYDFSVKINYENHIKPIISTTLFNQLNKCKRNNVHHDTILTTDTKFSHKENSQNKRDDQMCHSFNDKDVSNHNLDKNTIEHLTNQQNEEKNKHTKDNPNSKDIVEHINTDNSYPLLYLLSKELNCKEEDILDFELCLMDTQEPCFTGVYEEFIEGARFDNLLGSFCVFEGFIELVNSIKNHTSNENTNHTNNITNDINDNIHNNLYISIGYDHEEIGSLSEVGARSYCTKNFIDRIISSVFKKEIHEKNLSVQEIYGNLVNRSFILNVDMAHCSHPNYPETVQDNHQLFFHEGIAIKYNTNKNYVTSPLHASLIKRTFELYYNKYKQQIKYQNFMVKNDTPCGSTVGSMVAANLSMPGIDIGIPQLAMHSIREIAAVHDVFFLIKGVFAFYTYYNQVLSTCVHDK

[3] = molecular target: T3, Estrogen receptor (Homo sapiens, UniProt P03372);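 further: potency for inhibiting coactivator peptide recruitment to the receptor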
T3 sequence (P03372 whole entry): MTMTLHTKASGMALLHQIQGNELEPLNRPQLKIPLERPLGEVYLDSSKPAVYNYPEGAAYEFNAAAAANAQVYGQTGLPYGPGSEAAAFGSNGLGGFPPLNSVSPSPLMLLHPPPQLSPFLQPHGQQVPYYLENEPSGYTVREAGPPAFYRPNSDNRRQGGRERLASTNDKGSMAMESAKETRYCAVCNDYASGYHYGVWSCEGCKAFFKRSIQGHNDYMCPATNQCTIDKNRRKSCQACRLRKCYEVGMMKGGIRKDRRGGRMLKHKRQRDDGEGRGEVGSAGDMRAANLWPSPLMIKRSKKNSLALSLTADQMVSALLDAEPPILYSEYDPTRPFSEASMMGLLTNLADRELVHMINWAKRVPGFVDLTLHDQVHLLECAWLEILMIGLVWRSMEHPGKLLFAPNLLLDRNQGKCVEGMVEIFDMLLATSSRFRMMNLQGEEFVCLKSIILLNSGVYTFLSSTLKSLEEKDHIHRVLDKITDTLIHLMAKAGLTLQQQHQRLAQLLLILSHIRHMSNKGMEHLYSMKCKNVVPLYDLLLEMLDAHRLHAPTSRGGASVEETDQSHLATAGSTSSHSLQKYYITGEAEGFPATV

[4] = inhibitors of clade B AD8 Env fusion, dose response, cell-based, cherry-pick (AID 652062); assay type: functional;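 further: luciferase signal from cell-cell fusion driven by HIV-1 clade B AD8 Env; potency is for inhibitors of fusion seen as a drop in luminescence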
[5] = ZM109 Env clade C HIV-1 fusion inhibitors, dose response, HeLa effector, CEM target cells, luciferase, cherry-pick (AID 652058); assay type: functional, cell-based
[6] = inhibitors of HIV Env-driven cell fusion, dose response, cherry-pick (AID 652057); assay type: functional, cell-based
[7] = molecular target: T4, Leucine aminopeptidase (Plasmodium falciparum 3D7, UniProt Q8IL11); experiment: P. falciparum M17LAP inhibitors, primary screen, biochemical, fluorogenic H-Leu-NHMec substrate, 1536-well (AID 1619); assay type: functional
T4 sequence (Q8IL11 whole entry): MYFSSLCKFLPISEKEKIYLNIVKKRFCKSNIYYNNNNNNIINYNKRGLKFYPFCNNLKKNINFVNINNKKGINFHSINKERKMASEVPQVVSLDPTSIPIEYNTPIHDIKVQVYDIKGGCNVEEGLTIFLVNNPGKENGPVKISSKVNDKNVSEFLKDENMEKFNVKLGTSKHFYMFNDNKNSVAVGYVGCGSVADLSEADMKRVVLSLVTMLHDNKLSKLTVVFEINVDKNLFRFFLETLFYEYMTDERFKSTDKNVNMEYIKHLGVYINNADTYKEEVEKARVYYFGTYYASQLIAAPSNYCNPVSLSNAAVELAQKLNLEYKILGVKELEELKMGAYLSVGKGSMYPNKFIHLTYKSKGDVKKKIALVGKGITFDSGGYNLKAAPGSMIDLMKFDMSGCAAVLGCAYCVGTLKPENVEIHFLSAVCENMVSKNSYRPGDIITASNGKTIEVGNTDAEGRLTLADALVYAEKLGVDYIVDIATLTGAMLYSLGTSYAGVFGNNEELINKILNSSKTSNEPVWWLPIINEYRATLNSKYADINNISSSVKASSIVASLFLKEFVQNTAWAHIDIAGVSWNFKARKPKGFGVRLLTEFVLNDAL

[8] = molecular target: T1, Procathepsin L; experiment: cathepsin L inhibitors, dose response, counter-screen for M1/M17 aminopeptidase inhibitor project, biochemical, QFRET, 1536-well (AID 2214)
[9] = molecular target: T2, Aspartyl aminopeptidase; experiment: Counterscreen for inhibitors of M1 and M17 aminopeptidases: QFRET-based biochemical high throughput dose response assay for inhibitors of the Plasmodium falciparum M18 Aspartyl Aminopeptidase (PFM18AAP). [Related PubChem assays: 1619 (Screening assay (M17LAP inhibitors).), 1445 (Screening assay (M1AAP inhibitors).)]
[10] = HepG2 cell cytotoxicity, dose response, cytotoxicity control for Shn3 inhibitor project, CellTiter-Glo, cherry-picked (AID 624134); assay type: functional, cell-based
[11] = inhibitors of firefly luciferase expression or activity, dose response, H4 neuroglioma cells, luminescence (AID 1990); assay type: functional, cell-based
[12] = molecular target: Cytochrome P450 3A4 (Homo sapiens, UniProt P08684);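 further: CYP3A4 tested as one member of a cytochrome P450 panel screen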
Sequence of Cytochrome P450 3A4 (P08684 whole entry): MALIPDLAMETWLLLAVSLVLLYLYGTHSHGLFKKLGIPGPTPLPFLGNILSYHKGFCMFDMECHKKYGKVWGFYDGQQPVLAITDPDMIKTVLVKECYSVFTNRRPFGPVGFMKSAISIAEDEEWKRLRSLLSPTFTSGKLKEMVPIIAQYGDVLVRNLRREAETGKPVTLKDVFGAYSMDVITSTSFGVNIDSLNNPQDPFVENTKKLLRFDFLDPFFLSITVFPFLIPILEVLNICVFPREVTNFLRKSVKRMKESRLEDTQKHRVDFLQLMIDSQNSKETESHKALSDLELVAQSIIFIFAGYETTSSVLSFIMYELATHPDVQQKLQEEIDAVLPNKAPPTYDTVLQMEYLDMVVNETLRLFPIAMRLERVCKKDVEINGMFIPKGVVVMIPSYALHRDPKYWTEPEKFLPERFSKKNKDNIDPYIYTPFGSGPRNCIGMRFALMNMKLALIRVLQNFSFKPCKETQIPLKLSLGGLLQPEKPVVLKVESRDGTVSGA

[13] = molecular target: T5, Ubiquitin-conjugating enzyme E2 N (Homo sapiens, UniProt P61088); assay type: functional;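 further: Dose-response confirmation in a TR-FRET assay detecting UBC13-driven polyubiquitin chain formation, inhibition measured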
T5 sequence (P61088 whole entry): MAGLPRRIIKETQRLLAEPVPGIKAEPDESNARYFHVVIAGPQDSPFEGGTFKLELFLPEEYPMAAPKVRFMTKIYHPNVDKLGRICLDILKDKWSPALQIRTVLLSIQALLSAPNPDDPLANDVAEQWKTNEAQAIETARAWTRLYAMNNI

[14] = molecular target: Cytochrome P450 2D6 (Homo sapiens, UniProt P10635);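 further: CYP2D6 member of a cytochrome P450 panel assay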
Sequence of Cytochrome P450 2D6 (P10635 whole entry): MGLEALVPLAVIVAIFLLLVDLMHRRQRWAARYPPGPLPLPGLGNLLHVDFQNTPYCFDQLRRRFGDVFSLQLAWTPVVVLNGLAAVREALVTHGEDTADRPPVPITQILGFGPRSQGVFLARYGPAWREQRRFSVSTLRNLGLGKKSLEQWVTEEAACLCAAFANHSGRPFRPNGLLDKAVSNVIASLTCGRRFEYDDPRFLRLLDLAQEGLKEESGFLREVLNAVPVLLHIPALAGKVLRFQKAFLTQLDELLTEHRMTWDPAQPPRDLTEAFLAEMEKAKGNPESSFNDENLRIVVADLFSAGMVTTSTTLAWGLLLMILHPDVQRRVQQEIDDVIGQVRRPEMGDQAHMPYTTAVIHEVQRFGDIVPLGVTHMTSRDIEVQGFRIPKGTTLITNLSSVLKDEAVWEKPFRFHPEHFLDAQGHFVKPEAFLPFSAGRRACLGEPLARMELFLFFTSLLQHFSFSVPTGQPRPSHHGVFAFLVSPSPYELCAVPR

[15] = Shn3 3'UTR reporter inhibitors, dose response, cell-based, Clone20 osteoblasts, firefly luciferase, cherry-picked (AID 624132); assay type: functional;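 further: firefly luciferase luminescence from reporter carrying the Shn3 3'UTR in osteoblasts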
[16] = molecular target: Cytochrome P450 2C9 (Homo sapiens, UniProt P11712)
Sequence of Cytochrome P450 2C9 (P11712 whole entry): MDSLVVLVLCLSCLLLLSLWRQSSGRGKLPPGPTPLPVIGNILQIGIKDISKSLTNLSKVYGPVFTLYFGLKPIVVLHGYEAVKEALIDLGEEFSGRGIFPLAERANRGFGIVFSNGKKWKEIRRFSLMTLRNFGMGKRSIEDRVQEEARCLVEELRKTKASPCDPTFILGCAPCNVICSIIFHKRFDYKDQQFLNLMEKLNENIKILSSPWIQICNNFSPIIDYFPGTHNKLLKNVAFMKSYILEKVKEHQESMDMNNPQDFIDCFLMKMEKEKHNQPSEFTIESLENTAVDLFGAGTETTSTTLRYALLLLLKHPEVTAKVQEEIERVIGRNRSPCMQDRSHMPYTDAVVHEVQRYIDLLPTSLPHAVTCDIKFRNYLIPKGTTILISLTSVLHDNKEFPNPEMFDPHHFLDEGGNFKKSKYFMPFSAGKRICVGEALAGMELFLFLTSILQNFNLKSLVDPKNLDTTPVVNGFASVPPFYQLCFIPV

[17] = cytotoxicity in HPDE-C7 cells, cell-based, fluorescence, HTS (AID 430); assay type: functional; settings: Homo sapiens
[18] = molecular target: Cytochrome P450 2C19 (Homo sapiens, UniProt P33261); experiment: Cytochrome panel assay with activity outcomes. Panel member name: p450-cyp2c19 Compounds with AC50 equal or less than 10 uM are considered active; assay type: functional; settings: read-out: AC50
Sequence of Cytochrome P450 2C19 (P33261 whole entry): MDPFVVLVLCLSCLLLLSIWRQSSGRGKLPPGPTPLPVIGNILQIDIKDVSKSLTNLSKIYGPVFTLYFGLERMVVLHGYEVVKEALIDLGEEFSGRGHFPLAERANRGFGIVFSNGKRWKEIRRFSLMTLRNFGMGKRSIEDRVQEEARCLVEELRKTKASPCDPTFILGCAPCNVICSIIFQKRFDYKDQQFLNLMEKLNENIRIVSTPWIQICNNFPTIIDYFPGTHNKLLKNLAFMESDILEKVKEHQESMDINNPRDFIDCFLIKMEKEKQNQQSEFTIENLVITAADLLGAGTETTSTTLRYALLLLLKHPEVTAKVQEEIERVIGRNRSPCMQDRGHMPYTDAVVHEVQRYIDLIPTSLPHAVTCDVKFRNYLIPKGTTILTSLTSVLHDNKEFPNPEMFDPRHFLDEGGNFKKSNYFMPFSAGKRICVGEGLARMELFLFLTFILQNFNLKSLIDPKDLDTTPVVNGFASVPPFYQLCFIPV

[19] = inhibitors of SNCA 5'UTR-driven reporter translation, confirmation, H4 neuroglioma cells, luminescence (AID 1988); assay type: functional, cell-based
[20] = growth suppression of PTEN-null colon cells, dose response, cell-based, HCT116 PTEN knockout (AID 1047); assay type: functional;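 further: HCT116 colon tumor cells with PTEN knocked out; cells exposed to compound for 60 hours before readout; potency for loss of cell viability measured by luminescence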
[21] = growth suppression of beta-catenin-knockout colon cells, dose response, cell-based, HCT116, human colon tumor (AID 1045); assay type: functional;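 further: HCT116 colon tumor cells with beta catenin knocked out; cells exposed to compound for 60 hours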
[22] = cytotoxicity in KRAS-transformed pancreatic duct cells, primary screen, cell-based, fluorescence, HTS (AID 431); assay type: functional; settings: Homo sapiens;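 further: cell line used: HPDE-C7K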
[23] = Luminescence Cell-Based Dose Response HTS to Identify Inhibitors of 5'UTR Stem-Loop Driven Prion Protein mRNA Translation in H4 Neuroglioblastoma Cells. [Related pubchem assays: 1827 (Project Summary), 1813 (Primary HTS)]; assay type: functional
[24] = control 3'UTR Renilla luciferase suppression, dose response, counter-screen for Shn3 inhibitor project, cell-based, Clone20-Shn3RL, cherry-picked (AID 624133); assay type: functional
[25] = molecular target: T6, Short transient receptor potential channel 4 (Mus musculus, UniProt Q9QUQ5); experiment: mouse TRPC4 channel inhibitors, dose response, cell-based, HEK293 TRPC4/mu-opioid, Fluo-4 calcium (AID 434942); assay type: functional;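 further: potency of inhibitors blocking the TRPC4 calcium response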
T6 sequence (Q9QUQ5 whole entry): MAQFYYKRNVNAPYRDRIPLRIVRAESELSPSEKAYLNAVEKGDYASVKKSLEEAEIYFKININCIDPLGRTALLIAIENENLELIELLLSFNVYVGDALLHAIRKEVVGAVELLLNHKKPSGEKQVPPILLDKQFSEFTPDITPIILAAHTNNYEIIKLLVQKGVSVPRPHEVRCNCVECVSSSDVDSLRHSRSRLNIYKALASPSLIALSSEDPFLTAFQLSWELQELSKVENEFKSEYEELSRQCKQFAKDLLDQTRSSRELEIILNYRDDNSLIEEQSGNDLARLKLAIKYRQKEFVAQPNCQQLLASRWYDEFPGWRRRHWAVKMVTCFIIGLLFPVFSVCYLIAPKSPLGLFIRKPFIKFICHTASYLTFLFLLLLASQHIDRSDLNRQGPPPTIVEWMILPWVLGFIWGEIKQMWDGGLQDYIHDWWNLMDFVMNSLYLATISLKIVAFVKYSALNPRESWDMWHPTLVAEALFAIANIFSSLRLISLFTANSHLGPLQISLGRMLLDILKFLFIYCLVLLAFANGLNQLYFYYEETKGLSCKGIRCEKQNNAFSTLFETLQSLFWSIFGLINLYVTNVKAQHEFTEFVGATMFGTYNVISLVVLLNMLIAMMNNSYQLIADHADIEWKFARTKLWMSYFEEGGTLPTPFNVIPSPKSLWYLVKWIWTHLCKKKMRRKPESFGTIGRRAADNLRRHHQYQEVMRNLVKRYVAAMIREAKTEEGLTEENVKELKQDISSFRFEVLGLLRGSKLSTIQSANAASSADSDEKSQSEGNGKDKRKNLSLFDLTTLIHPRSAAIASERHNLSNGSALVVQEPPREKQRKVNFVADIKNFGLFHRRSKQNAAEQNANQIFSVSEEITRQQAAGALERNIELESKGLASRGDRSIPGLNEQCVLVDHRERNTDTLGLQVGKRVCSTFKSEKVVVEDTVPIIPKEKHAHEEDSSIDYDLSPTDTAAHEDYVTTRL

[26] = Luminescence Cell-Based Dose Response HTS to Identify Activators of Luciferase Translation or Activity in H4 […] Cells. [Related pubchem assays: 1829 (Project Summary), 1814 (Primary HTS)]; assay type: functional
[27] = molecular target: Dual specificity tyrosine-phosphorylation-regulated kinase 1A (Rattus norvegicus, UniProt Q63470); assay type: biochemical, Homo sapiens
[28] = system: H4; experiment: Luminescence Cell-Based Dose Response HTS to Identify Activators of 5'UTR Stem-Loop Driven Prion Protein mRNA Translation in H4 Neuroglioblastoma Cells. [Related pubchem assays: 1829 (Project Summary), 1814 (Primary HTS)]; assay type: functional; settings: Homo sapiens
[29] = molecular target: Eukaryotic translation initiation factor 4E (Mus musculus, UniProt P63073); experiment: eIF4E–eIF4G protein interaction inhibitors, dose response, biochemical, TR-FRET (AID 855); assay type: functional;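 further: potency for disrupting eIF4E binding to eIF4GI seen as loss of FRET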
Sequence of Eukaryotic translation initiation factor 4E (P63073 whole entry): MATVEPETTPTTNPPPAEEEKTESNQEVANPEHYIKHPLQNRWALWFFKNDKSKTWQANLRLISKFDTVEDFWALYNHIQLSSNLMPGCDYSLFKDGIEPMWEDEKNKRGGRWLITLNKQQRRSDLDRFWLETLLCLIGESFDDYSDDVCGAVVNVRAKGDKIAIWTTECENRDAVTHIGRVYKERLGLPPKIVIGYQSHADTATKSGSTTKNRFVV

[30] = M. tuberculosis H37Rv growth inhibitors, H37Rv strain (AID 1626); assay type: functional
[31] = molecular target: Large T antigen (Simian virus 40, UniProt P03070); assay type: functional, Betapolyomavirus macacae;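 further: Confirmatory-stage PubChem screen for compounds that inhibit SV40 T antigen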
Sequence of Large T antigen (P03070 whole entry): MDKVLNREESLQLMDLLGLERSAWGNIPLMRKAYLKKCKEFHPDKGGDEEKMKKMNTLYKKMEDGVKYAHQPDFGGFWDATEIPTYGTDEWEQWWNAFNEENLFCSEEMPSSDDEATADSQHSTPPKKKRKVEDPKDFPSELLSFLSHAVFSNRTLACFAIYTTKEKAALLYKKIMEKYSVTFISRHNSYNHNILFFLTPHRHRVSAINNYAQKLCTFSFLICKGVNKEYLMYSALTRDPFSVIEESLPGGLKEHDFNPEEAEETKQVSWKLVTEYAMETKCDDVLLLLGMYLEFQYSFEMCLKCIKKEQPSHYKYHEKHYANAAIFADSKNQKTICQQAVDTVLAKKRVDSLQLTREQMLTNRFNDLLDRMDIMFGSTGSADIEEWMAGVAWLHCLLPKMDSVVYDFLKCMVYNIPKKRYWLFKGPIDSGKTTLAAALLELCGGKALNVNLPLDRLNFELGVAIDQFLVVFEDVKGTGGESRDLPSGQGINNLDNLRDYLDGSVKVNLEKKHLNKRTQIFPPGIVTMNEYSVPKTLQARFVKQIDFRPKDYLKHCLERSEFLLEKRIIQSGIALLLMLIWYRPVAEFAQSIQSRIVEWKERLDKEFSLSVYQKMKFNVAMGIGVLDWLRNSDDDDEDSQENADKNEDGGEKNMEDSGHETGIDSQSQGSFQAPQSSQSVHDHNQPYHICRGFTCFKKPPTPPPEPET

[32] = A cytotoxicity screen of small molecule inhibitors of the PhoP region in Salmonella typhi identified in the primary screen. [Related pubchem assays: 1850, 1864, 1985 ]; assay type: functional

T1 sequence (P07711 whole entry): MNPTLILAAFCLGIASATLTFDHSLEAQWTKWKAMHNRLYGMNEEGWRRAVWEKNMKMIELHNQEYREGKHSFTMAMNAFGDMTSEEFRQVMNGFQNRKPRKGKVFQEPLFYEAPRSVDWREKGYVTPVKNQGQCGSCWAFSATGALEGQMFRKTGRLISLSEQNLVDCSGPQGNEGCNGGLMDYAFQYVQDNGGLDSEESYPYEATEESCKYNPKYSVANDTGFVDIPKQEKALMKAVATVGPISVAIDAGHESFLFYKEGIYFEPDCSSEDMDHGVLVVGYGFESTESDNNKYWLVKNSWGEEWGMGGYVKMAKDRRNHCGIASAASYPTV

O=C(Nc1ccccc1Cl)Nn1cnnc1
IC50 [1]: > 59.6 µM (not active) | IC50 [2]: 1.47 µM (active)

O=S(=O)(NCCc1csc(-c2cccnc2)n1)c1ccc(Cl)s1
IC50 [3]: 19.2 µM (active) | AC50 [4]: 12 µM (active) | AC50 [5]: 7.17 µM (active) | AC50 [6]: 42 µM (active)

CCc1cc2cc(OC)ccc2nc1SCC(=O)Nc1cc(OC)c(OC)cc1C(=O)O
IC50 [7]: < 1 µM (active) | IC50 [8]: > 59.6 µM (not active) | IC50 [9]: > 73.5 µM (not active)

COc1ccc(CCN2CCC(Nc3nc4ccccc4n3Cc3ccc(F)cc3)CC2)cc1 [ASTEMIZOLE]
AC50 [10]: 12.6 µM (active) | EC50 [11]: > 60 µM (not active) | AC50 [12]: inactive | IC50 [13]: > 20 µM (inactive) | AC50 [14]: 7.94 µM (active) | AC50 [15]: 3.03 µM (active) | AC50 [16]: inactive | EC50 [17]: 12.4 µM (active) | AC50 [18]: 7.94 µM (inconclusive) | EC50 [19]: 7.94 µM (active) | EC50 [20]: 5.87 µM (active) | EC50 [21]: 3.78 µM (active) | EC50 [22]: 13.6 µM (active) | EC50 [23]: 9.34 µM (active) | AC50 [24]: 19.7 µM (active)

Oc1ccc(-c2csc(-c3ccccc3)n2)cc1O
IC50 [1]: > 59.6 µM (not active) | IC50 [2]: 2.78 µM (active) | EC50 [25]: 4.73 µM (active) | EC50 [26]: > 120 µM (not active) | AC50 [27]: 6.72 µM (active) | EC50 [28]: 6.54 µM (active)

CCOC(=O)c1cnn(C(=O)c2ccccc2)c1N
IC50 [29]: > 64 µM (inactive) | IC50 [30]: > 100 µM (active)

COc1ccc(/N=C/c2c[nH]nc2O)cc1
IC50 [31]: 17.9 µM (active) | IC50 [30]: > 100 µM (active)

Cc1ccccc1Nc1nnc(SCC(=O)NC(=O)NCc2ccco2)s1
IC50 [7]: 25.1 µM (active) | IC50 [3]: 17.3 µM (active)

Cc1cc(C(=O)COC(=O)c2ccc[nH]c2=O)c(C)n1-c1ccc(Br)cc1
IC50 [7]: 2.74 µM (active) | IC50 [8]: > 59.6 µM (not active) | IC50 [9]: > 73.5 µM (not active)

O=C(CSc1nnc(-c2ccccc2)o1)Nn1cnnc1
IC50 [1]: > 59.6 µM (not active) | IC50 [2]: 2.09 µM (active)

CC1CCc2sc(NC(=O)C3CC(Cl)=CCC3C(=O)O)c(C#N)c2C1 (stereo not drawn)
IC50 [7]: < 1 µM (active) | IC50 [8]: > 59.6 µM (not active) | IC50 [9]: > 73.5 µM (not active)

O=C(NCc1cccs1)C(=O)NCC(c1ccco1)N1CCN(c2ccc(F)cc2)CC1 (stereo not drawn)
EC50 [32]: > 50 µM (active)

CCc1ccc(C(=O)CSC2=C(C#N)C(c3ccco3)C(C(C)=O)=C(C)N2)cc1 (stereo not drawn)
EC50 [17]: 14.4 µM (active) | EC50 [22]: 15.7 µM (active)

CCCCOc1ccc(-c2nnn(CC(=O)Nc3ncc(CC(=O)OCC)s3)n2)cc1
EC50 [32]: > 50 µM (active)
